Experimental data taken from patent US20230200390A1, “SELECTIVE HERBICIDES BASED ON SUBSTITUTED ISOXAZOLIN CARBOXAMIDES AND MEFENPYR-DIETHYL” (BAYER AKTIENGESELLSCHAFT, priority 2020, published 2023).

Experiments:
Assay type in all cases: in vivo
[1] = test system: spring barley, HORVS Montoya; experiment: Tank-mix; post-emergence: crop damage by herbicide with/without safener mefenpyr-diethyl; details: 10 DAT
Protocol: (§1) Seeds of crops (spring wheat, TRZAS; spring barley, HORVS; maize, ZEAMA) were placed in sandy loam soil in peat pots, covered with soil and cultivated in a greenhouse under good growth conditions. Two to three weeks after sowing, the test plants were treated at the 1 to 3-leaf stage. The herbicide/safener active compound combinations according to the invention, formulated as wettable powders or emulsion concentrates, and, in parallel tests, the correspondingly formulated individual active compounds were sprayed onto the green parts of the plants in various dosages using an amount of water of 300 l/ha (converted).
(§2) The pots were returned under good growing conditions in a glasshouse and a visual assessment of herbicidal effects was made at intervals from 1 to 3 weeks after herbicide application (DAT=days after treatment). Assessment was on a percentage basis in comparison with untreated control plants (0%=no injury, 100%=complete kill).

[2] = test system: spring wheat, TRZAS Triso; experiment: as above
Protocol: as §1, §2

[3] = test system: spring barley, HORVS Montoya; experiment: Seed treatment with safener; post-emergence herbicide, crop damage; details: 10 DAT; for HER effect + SAF / Reduction [%] / Reduction [Difference]: mefenpyr-diethyl 0.5 g a.i./kg seed
From the text: (§3) For safener seed treatment trials, sufficient seed amounts of the respective crops (spring wheat (TRZAS); spring barley (HORVS)) were weighed into screw cap glass bottles with a minimum volume trice of the seeds.
(§4) As a first step, specified safeners formulated as wettable powder (WP) or wettable granules (WG) were weighed out for the required dosages (g a.i./kg seed), corresponding to the seed amounts. The safener amounts were mixed with a coloured slurry blind formulation type, prediluted with milk at 3.5% fat rate (25 mgs slurry formulation plus 2 ml milk per 10 grams of seed). A tube roller was used for coating. The solutions were gradually pipetted each on the rotating seeds followed by coating for min. 3 hours until all liquid had been soaked up by the seeds. Thereafter, the coated seeds were put flat on open trays for drying over night at room temperature.
(§5) Treated seeds were then placed into pots (7 cm diameter) on the surface of sandy loam, pressed down, flat covered with additional soil and finally covered with sandy soil, also pressed down, watered, and kept under good growth conditions in a greenhouse, until the plants had reached 2-leaf-stage (BBCH 12).
(§6) At that stage, post-emergence application of the specified herbicides was done on:
(§7) a) pot sets containing plants with safener-coated seeds as described above,
(§8) b) as a reference, pot sets of plants without seed treatment.
(§9) The herbicides were formulated as wettable powder (WP). Equivalent to the spray area, compound amounts were weighed out and diluted related to the water application rate (300 l/ha) to an aqueous suspension plus additive (1 l/ha MERO). Dosage related equivalents were conventionally sprayed on trays with the potted plants.
(§10) After application, the test plants were kept under good growth conditions in a greenhouse.
(§11) Assessment timings were 10 and 21 days after treatment (DAT) with the herbicide, by visual scoring of the crop damage in % (comparison of untreated with treated plants, either sprayed only with herbicide or with herbicide on plants with treated seeds).

[4] = test system: spring wheat, TRZAS Triso; experiment: as above; details: for HER effect + SAF [%] (crop damage) / Reduction [%] / Reduction [Difference]: mefenpyr-diethyl 0.5 g a.i./kg seed; for HER effect [%] (crop damage, herbicide without safener): no safener
From the text: as §3, §4, §5, §6, §7, §8, §9, §10, §11

[5] = HER 8 g a.i./ha + mefenpyr-diethyl 50 g a.i./ha
[6] = HER 8 g a.i./ha + mefenpyr-diethyl 50 g a.i./ha, 10 DAT
[7] = HER 32 g a.i./ha post-emergence
[8] = herbicide alone 8 g a.i./ha post-emergence
[9] = herbicide alone 32 g a.i./ha post-emergence
[10] = HER 32 g a.i./ha + mefenpyr-diethyl 100 g a.i./ha
[11] = HER 32 g a.i./ha + mefenpyr-diethyl 100 g a.i./ha, 21 DAT

| Compound | HER effect + SAF [1, 5] | Reduction [%] [1, 5] | Reduction [Difference] [1, 5] | HER effect ([1]; herbicide alone 8 g a.i./ha) | HER effect + SAF ([3]; HER 8 g a.i./ha post-emergence) | Reduction [%] ([3]; HER 8 g a.i./ha post-emergence) | Reduction [Difference] ([3]; HER 8 g a.i./ha post-emergence) | HER effect + SAF [3, 7] | Reduction [%] [3, 7] | Reduction [Difference] [3, 7] | HER effect [3, 8] | HER effect [3, 9] | also measured |
| --- | --- | --- | --- | --- | --- | --- | --- | --- | --- | --- | --- | --- | --- |
| C=CC1(C(=O)NC2COC(C(=O)OCCOC)C2)CC(c2cc(C)cc(F)c2)=NO1 (mixture of isomers) [Example 1.65] | 20% | 75% | 60 | 80% | 20% | 75% | 60 | 50% | 38% | 30 | 80% | 80% | HER effect + SAF [2, 6]: 0%; Reduction [%] [2, 6]: 100%; Reduction [Difference] [2, 6]: 20; HER effect ([2]; herbicide alone 8 g a.i./ha, 10 DAT): 20%; HER effect + SAF [%] (crop damage) ([4]; 10 DAT, HER dose 8 g a.i./ha): 0%; Reduction [%] ([4]; 10 DAT, HER dose 8 g a.i./ha): 100%; Reduction [Difference] ([4]; 10 DAT, HER dose 8 g a.i./ha): 20; HER effect [%] (crop damage, herbicide without safener) ([4]; 10 DAT, HER dose 8 g a.i./ha): 20% |
| COC(=O)C1CC(NC(=O)C2(OC)CC(c3cc(F)cc(F)c3)=NO2)CO1 (mixture of isomers) [Example 1.72] | 0% | 100% | 30 | 30% | 0% | 100% | 30 | 0% | 100% | 50 | 30% | 50% | HER effect + SAF [1, 10]: 10%; Reduction [%] [1, 10]: 80%; Reduction [Difference] [1, 10]: 40; HER effect ([1]; herbicide alone 32 g a.i./ha): 50%; HER effect + SAF [2, 11]: 10%; Reduction [%] [2, 11]: 83%; Reduction [Difference] [2, 11]: 50; HER effect ([2]; herbicide alone 32 g a.i./ha, 21 DAT): 60%; HER effect + SAF [%] (crop damage) ([4]; 21 DAT, HER dose 8 g a.i./ha): 0%; Reduction [%] ([4]; 21 DAT, HER dose 8 g a.i./ha): 100%; Reduction [Difference] ([4]; 21 DAT, HER dose 8 g a.i./ha): 20; HER effect [%] (crop damage, herbicide without safener) ([4]; 21 DAT, HER dose 8 g a.i./ha): 20%; HER effect + SAF [%] (crop damage) ([4]; 21 DAT, HER dose 32 g a.i./ha): 10%; Reduction [%] ([4]; 21 DAT, HER dose 32 g a.i./ha): 83%; Reduction [Difference] ([4]; 21 DAT, HER dose 32 g a.i./ha): 50; HER effect [%] (crop damage, herbicide without safener) ([4]; 21 DAT, HER dose 32 g a.i./ha): 60% |
